{"source": "paper PMC8712300", "about": "(European Journal of Nuclear Medicine and Molecular Imaging, 2021)", "key": {"[1]": {"target": "central benzodiazepine receptor (CBR)", "settings": "read-out: Ki CBR; displacement of [^3H]flunitrazepam, rat cerebral cortex", "protocol": "(§1) The binding assay was performed following a previously published procedure [22], with slight modifications."}, "TSPO [2]": {"target": "T1, TSPO (Rattus norvegicus, UniProt P16257)", "T1 sequence (P16257 whole entry)": "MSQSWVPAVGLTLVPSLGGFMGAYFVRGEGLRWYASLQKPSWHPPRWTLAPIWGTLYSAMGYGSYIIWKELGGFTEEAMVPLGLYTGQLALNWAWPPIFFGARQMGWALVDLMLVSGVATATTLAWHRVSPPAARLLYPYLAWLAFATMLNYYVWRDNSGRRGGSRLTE", "assay": "biochemical", "protocol": "as §1"}, "TSPO-WT (HAB)": {"target": "TSPO-WT (HAB) (Homo sapiens, UniProt P30536, T147A)", "sequence (P30536 whole entry T147A)": "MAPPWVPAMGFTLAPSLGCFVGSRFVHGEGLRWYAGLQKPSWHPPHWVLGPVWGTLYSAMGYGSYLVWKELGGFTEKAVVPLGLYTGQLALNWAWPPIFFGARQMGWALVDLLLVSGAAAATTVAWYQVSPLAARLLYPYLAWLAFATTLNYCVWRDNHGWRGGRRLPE", "assay": "biochemical"}, "TSPO-mutant A147T (LAB)": {"target": "TSPO-mutant A147T (LAB) (Homo sapiens, UniProt P30536)", "sequence (P30536 whole entry, stated change not applied)": "as the sequence (P30536 whole entry T147A) above, with A147T counted along it", "assay": "biochemical"}, "TSPO [3]": {"target": "T1, TSPO"}, "[4]": {"settings": "n-octanol/PBS pH 7.4, individual replicates", "protocol": "(§2) After vortexing for 1 min, each tube was placed on a table at 25 °C for 3 min. Samples of each phase (100 μL) were counted for radioactivity using a gamma-counter. Log D is expressed as the logarithm of the ratio of the count of n-octanol to that of PBS."}, "[5]": {"settings": "37 °C, 120 min", "protocol": "Aliquots (0.2 mL) were collected at 0, 15, 30, 60, and 120 min and mixed with acetonitrile (0.2 mL), and then centrifuged at 3500 rpm for 5 min. The resulting supernatants were analyzed using a radio-TLC scanner with the developing solvent (50% ethyl acetate-hexane)."}, "[6]": {"settings": "normal mice, PET 90 min", "protocol": "Normal male C57BL/6 mice (n = 4, 6–7 weeks old, Orientbio Inc.) were used to perform in vivo organ distribution and dosimetry studies (see methodological details in the SI).\nAll the mice (n = 4) were anesthetized with 2% isoflurane. […] The CT images were used to draw region of interest (ROI) on the following organs: the brain, heart, lung, liver, stomach, urinary bladder, intestine kidneys and adrenals. […] The accumulated activity for each organ were calculated by using the area under curve (AUC) of TACs."}, "[7]": {"assay": "not given", "remark": "listed apart in the source"}, "TSPO [8]": {"target": "T1, TSPO", "remark": "listed apart in the source", "protocol": "Male Sprague–Dawley rats (7–8 weeks old, Orientbio Inc.) were used to create rat models of neuroinflammation and ischemic stroke (n = 4 for each model). An acute neuroinflammation rat model was generated by injecting lipopolysaccharides (LPS, 50 μg) into the right striatum of rat brain according to our previous protocol [26]. […] In the case of LPS-induced neuroinflammatory model, rats were anesthetized with ketamine hydrochloride (50 mg/kg) and xylazine hydrochloride (0.2 mg/kg) before LPS injection.\nThe PET imaging study was performed using a dedicated animal PET/CT scanner (NanoPET/CT; Mediso Inc., Budapest, Hungary) with a 10-cm axial field-of-view (FOV) and a 12-cm transaxial FOV. Before PET imaging, the rats were anesthetized with 2% isoflurane. […]\n(§3) The volumes of interest (VOIs) were drawn around the peak PET activity on the ipsilateral region in a coronal PET/CT slice, and symmetrically pasted into the contralateral side on the same slice to yield a contralateral VOI of identical volume and shape. […] Decay-corrected radioactivity in the VOI was expressed as the standardized uptake value (SUV), which was normalized to the injected radioactivity and body weight of the rat using PMOD software version 3.6 (PMOD Technologies Ltd., Zurich, Switzerland). […] The binding potential (BPND) was also calculated as a quantitative value, which represented the receptor binding with the radioligand. […]"}, "TSPO [9]": {"target": "T1, TSPO", "remark": "listed apart in the source", "description": "Male Sprague–Dawley rats (7–8 weeks old, Orientbio Inc.) were used to create rat models of neuroinflammation and ischemic stroke (n = 4 for each model). […] An ischemic stroke rat model was generated via 60-min occlusion of the right middle cerebral artery (MCAO), as previously described [27]. […] In the case of ischemic stroke model, rats were anesthetized with 5% isoflurane in the presence of 30% nitrous oxide and 70% oxygen, and then were under anesthesia with 2% isoflurane in the presence of 30% nitrous oxide and 70% oxygen during MCAO surgery.\nThe PET imaging study was performed using a dedicated animal PET/CT scanner (NanoPET/CT; Mediso Inc., Budapest, Hungary) with a 10-cm axial field-of-view (FOV) and a 12-cm transaxial FOV. […]\nas §3"}, "physchem": {"assay": "physchem", "settings": "n-octanol/PBS", "protocol": "as §2"}, "in vitro [10]": {"assay": "in vitro", "settings": "rat, rat plasma", "protocol": "(§4) Plasma protein binding (PPB) was measured using two plasma samples obtained from five rats and a healthy volunteer. […] The mixtures were transferred to the Amicon® Ultra 30 K device (Merck Millipore, USA), and centrifuged at 12,000 rpm for 15 min. […] The plasma-free fraction (fP) was calculated as fp = (APfree /APtotal)/(ASfree/AStotal)."}, "in vitro [11]": {"assay": "in vitro", "settings": "human, human plasma", "protocol": "as §4"}}, "note": "Several values for one entry are separate records, joined by “and”; a condition that tells them apart may be missing. Equal values may be shown once. Read-outs that look alike come from different tables or passages of the source.", "data": [{"molecule": "CCCN(CCC)C(=O)Cc1c(-c2ccc(F)cc2)nc2c(Cl)cc(Cl)cn12", "note": "[BS224]", "values": [{"measurement": "Ki", "setting": "[1]", "result": "> 100000", "unit": "nM"}, {"measurement": "Ki", "setting": "TSPO [2]", "result": "0.51 ± 0.03", "unit": "nM"}, {"measurement": "IC50", "setting": "TSPO-WT (HAB)", "result": "590 ± 40", "unit": "nM"}, {"measurement": "IC50", "setting": "TSPO-mutant A147T (LAB)", "result": "450 ± 20", "unit": "nM"}]}, {"molecule": "CCCN(CCC)C(=O)Cc1c(-c2ccc(OCCF)cc2)nc2c(Cl)cc(Cl)cn12", "note": "[CB251]", "values": [{"measurement": "Ki", "setting": "[1]", "result": "> 100000", "unit": "nM"}]}, {"molecule": "CN1C(=O)CN=C(c2ccccc2F)c2cc([N+](=O)[O-])ccc21", "note": "[Flunitrazepam]", "values": [{"measurement": "Ki", "setting": "[1]", "result": "6.2 ± 0.1", "unit": "nM"}]}, {"molecule": "CCC(C)N(C)C(=O)c1cc2ccccc2c(-c2ccccc2Cl)n1", "note": "(stereo not drawn) [PK 11195]", "values": [{"measurement": "Ki", "setting": "[1]", "result": "> 100000", "unit": "nM"}, {"measurement": "effect on [^18F]BS224 radioactivity in brain slices (blocking)", "setting": "TSPO [3]", "result": "significant reduction of radioactivity"}]}, {"molecule": "CCCN(CCC)C(=O)Cc1c(-c2ccc([18F])cc2)nc2c(Cl)cc(Cl)cn12", "note": "[[^18F]BS224, 2-(-2-(4-[^18F]fluorophenyl)-6,8-dichloro-imidazo[1,2-a]pyridin-3-yl)-N,N-dipropylacetamide]", "values": [{"measurement": "Log D (single measurements 1-5)", "setting": "[4]", "result": "2.754 and 2.735"}, {"measurement": "parent compound remained intact in human serum", "setting": "[5]", "result": "over 99%"}, {"measurement": "% in heart, Parent", "setting": "30 min", "result": "Intact"}, {"measurement": "% in kidneys, Parent", "setting": "30 min", "result": "Intact"}, {"measurement": "% in liver, Parent", "setting": "30 min", "result": "73.6% and 73.6 ± 5.9%"}, {"measurement": "% in lung, Parent", "setting": "30 min", "result": "Intact"}, {"measurement": "% in plasma, Parent", "setting": "30 min", "result": "90.7 ± 0.8", "unit": "%"}, {"measurement": "% in brain, Parent", "setting": "30 min after i.v. injection, rat", "result": "Intact"}, {"measurement": "% in heart, Parent", "setting": "90 min", "result": "Intact"}, {"measurement": "% in kidneys, Parent", "setting": "90 min", "result": "Intact"}, {"measurement": "% in liver, Parent", "setting": "90 min", "result": "53.1% and 53.1 ± 2.7%"}, {"measurement": "% in lung, Parent", "setting": "90 min", "result": "Intact"}, {"measurement": "% in plasma, Parent", "setting": "90 min", "result": "69.2 ± 2.9", "unit": "%"}, {"measurement": "% in brain, Parent", "setting": "90 min after i.v. injection, rat", "result": "Intact"}, {"measurement": "radioactivity in the femur (in vivo defluorination)", "setting": "gamma counting, rat", "result": "no radioactivity could be detected"}, {"measurement": "AUC Brain", "setting": "[6]", "result": "201.75±19.25", "unit": "%ID/g min"}, {"measurement": "AUC Heart", "setting": "[6]", "result": "442.73±84.59", "unit": "%ID/g min"}, {"measurement": "AUC Intestine", "setting": "[6]", "result": "250.45±7.71", "unit": "%ID/g min"}, {"measurement": "AUC Kidney", "setting": "[6]", "result": "1345.08±260.65", "unit": "%ID/g min"}, {"measurement": "AUC Liver", "setting": "[6]", "result": "1102.68±140.38", "unit": "%ID/g min"}, {"measurement": "AUC Lung", "setting": "[6]", "result": "403.48±82.21", "unit": "%ID/g min"}, {"measurement": "AUC Stomach", "setting": "[6]", "result": "198.98±53.18", "unit": "%ID/g min"}, {"measurement": "AUC Urinary Bladder", "setting": "[6]", "result": "91.44±21.23", "unit": "%ID/g min"}, {"measurement": "Cmax Brain", "setting": "[6]", "result": "5.78±1.51", "unit": "%ID/g"}, {"measurement": "Cmax Heart", "setting": "[6]", "result": "20.81±8.05", "unit": "%ID/g"}, {"measurement": "Cmax Intestine", "setting": "[6]", "result": "3.66±0.19", "unit": "%ID/g"}, {"measurement": "Cmax Kidney", "setting": "[6]", "result": "16.33±3.08", "unit": "%ID/g"}, {"measurement": "Cmax Liver", "setting": "[6]", "result": "16.21±1.95", "unit": "%ID/g"}, {"measurement": "Cmax Lung", "setting": "[6]", "result": "14.38±5.88", "unit": "%ID/g"}, {"measurement": "Cmax Stomach", "setting": "[6]", "result": "3.12±0.81", "unit": "%ID/g"}, {"measurement": "Cmax Urinary Bladder", "setting": "[6]", "result": "1.35±0.22", "unit": "%ID/g"}, {"measurement": "Tmax Brain", "setting": "[6]", "result": "1.83 ± 0.68", "unit": "min"}, {"measurement": "Tmax Heart", "setting": "[6]", "result": "0.83 ± 0.20", "unit": "min"}, {"measurement": "Tmax Intestine", "setting": "[6]", "result": "38.96 ± 21.39", "unit": "min"}, {"measurement": "Tmax Kidney", "setting": "[6]", "result": "64.38 ± 16.21", "unit": "min"}, {"measurement": "Tmax Liver", "setting": "[6]", "result": "38.29 ± 20.60", "unit": "min"}, {"measurement": "Tmax Lung", "setting": "[6]", "result": "0.71 ± 0.24", "unit": "min"}, {"measurement": "Tmax Stomach", "setting": "[6]", "result": "41.88 ± 23.30", "unit": "min"}, {"measurement": "Tmax Urinary Bladder", "setting": "[6]", "result": "45.94 ± 14.36", "unit": "min"}, {"measurement": "Effective dose (estimated whole-body human)", "setting": "[7]; extrapolated from normal mouse data", "result": "5.18 μSv/MBq and 05.18 ± 1.03 μSv/MBq"}, {"measurement": "Estimated Human Absorbed Dose, Adrenals", "setting": "[7]; from normal mouse data", "result": "09.66 ± 2.52", "unit": "µGy/MBq"}, {"measurement": "Estimated Human Absorbed Dose, Brain", "setting": "[7]; from normal mouse data", "result": "04.87 ± 0.90", "unit": "µGy/MBq"}, {"measurement": "Estimated Human Absorbed Dose, Breast", "setting": "[7]; from normal mouse data", "result": "02.28 ± 0.60", "unit": "µGy/MBq"}, {"measurement": "Estimated Human Absorbed Dose, Colon wall", "setting": "[7]; from normal mouse data", "result": "02.79 ± 0.55", "unit": "µGy/MBq"}, {"measurement": "Estimated Human Absorbed Dose, ET region", "setting": "[7]; from normal mouse data", "result": "00.75 ± 0.14", "unit": "µGy/MBq"}, {"measurement": "Estimated Human Absorbed Dose, Endosteum (bone surface)", "setting": "[7]; from normal mouse data", "result": "00.91 ± 0.19", "unit": "µGy/MBq"}, {"measurement": "Estimated Human Absorbed Dose, Eye lenses", "setting": "[7]; from normal mouse data", "result": "00.52 ± 0.09", "unit": "µGy/MBq"}, {"measurement": "Estimated Human Absorbed Dose, Gallbladder wall", "setting": "[7]; from normal mouse data", "result": "14.98 ± 3.89", "unit": "µGy/MBq"}, {"measurement": "Estimated Human Absorbed Dose, Heart wall", "setting": "[7]; from normal mouse data", "result": "10.54 ± 3.14", "unit": "µGy/MBq"}, {"measurement": "Estimated Human Absorbed Dose, Kidneys", "setting": "[7]; from normal mouse data", "result": "26.23 ± 8.91", "unit": "µGy/MBq"}, {"measurement": "Estimated Human Absorbed Dose, Liver", "setting": "[7]; from normal mouse data", "result": "28.88 ± 7.70", "unit": "µGy/MBq"}, {"measurement": "Estimated Human Absorbed Dose, Lung", "setting": "[7]; from normal mouse data", "result": "07.99 ± 2.42", "unit": "µGy/MBq"}, {"measurement": "Estimated Human Absorbed Dose, Lymphatic nodes", "setting": "[7]; from normal mouse data", "result": "02.60 ± 0.55", "unit": "µGy/MBq"}, {"measurement": "Estimated Human Absorbed Dose, Muscle", "setting": "[7]; from normal mouse data", "result": "00.77 ± 0.17", "unit": "µGy/MBq"}, {"measurement": "Estimated Human Absorbed Dose, Oesophagus", "setting": "[7]; from normal mouse data", "result": "03.90 ± 1.04", "unit": "µGy/MBq"}, {"measurement": "Estimated Human Absorbed Dose, Oral mucosa", "setting": "[7]; from normal mouse data", "result": "00.50 ± 0.09", "unit": "µGy/MBq"}, {"measurement": "Estimated Human Absorbed Dose, Pancreas", "setting": "[7]; from normal mouse data", "result": "07.79 ± 1.88", "unit": "µGy/MBq"}, {"measurement": "Estimated Human Absorbed Dose, Prostate", "setting": "[7]; from normal mouse data", "result": "00.43 ± 0.05", "unit": "µGy/MBq"}, {"measurement": "Estimated Human Absorbed Dose, Red (active) bone marrow", "setting": "[7]; from normal mouse data", "result": "02.01 ± 0.45", "unit": "µGy/MBq"}, {"measurement": "Estimated Human Absorbed Dose, Salivary glands", "setting": "[7]; from normal mouse data", "result": "00.49 ± 0.09", "unit": "µGy/MBq"}, {"measurement": "Estimated Human Absorbed Dose, Skin", "setting": "[7]; from normal mouse data", "result": "00.54 ± 0.12", "unit": "µGy/MBq"}, {"measurement": "Estimated Human Absorbed Dose, Small intestine wall", "setting": "[7]; from normal mouse data", "result": "07.30 ± 0.29", "unit": "µGy/MBq"}, {"measurement": "Estimated Human Absorbed Dose, Spleen", "setting": "[7]; from normal mouse data", "result": "02.90 ± 0.71", "unit": "µGy/MBq"}, {"measurement": "Estimated Human Absorbed Dose, Stomach wall", "setting": "[7]; from normal mouse data", "result": "09.06 ± 3.12", "unit": "µGy/MBq"}, {"measurement": "Estimated Human Absorbed Dose, Testes", "setting": "[7]; from normal mouse data", "result": "00.06 ± 0.00", "unit": "µGy/MBq"}, {"measurement": "Estimated Human Absorbed Dose, Thymus", "setting": "[7]; from normal mouse data", "result": "01.88 ± 0.52", "unit": "µGy/MBq"}, {"measurement": "Estimated Human Absorbed Dose, Thyroid", "setting": "[7]; from normal mouse data", "result": "00.95 ± 0.25", "unit": "µGy/MBq"}, {"measurement": "Estimated Human Absorbed Dose, Urinary bladder wall", "setting": "[7]; from normal mouse data", "result": "09.46 ± 2.73", "unit": "µGy/MBq"}, {"measurement": "skull uptake", "setting": "TSPO [8]; LPS model PET", "result": "not observed"}, {"measurement": "BPND", "setting": "TSPO [8]; LPS model, SRTM, contralateral side as reference", "result": "1.43 ± 0.17"}, {"measurement": "skull uptake", "setting": "TSPO [9]; ischemic stroke model PET", "result": "not observed"}, {"measurement": "BPND", "setting": "TSPO [9]; ischemic stroke model, SRTM, contralateral side as reference", "result": "1.57 ± 0.37"}, {"measurement": "logD", "setting": "physchem; pH 7.4, Log D (single measurements 1-5), n-octanol/PBS pH 7.4, individual replicates", "result": 2.78}, {"measurement": "logD", "setting": "physchem; pH 7.4, Log D, n-octanol/PBS pH 7.4, 25 °C, average n = 5", "result": "2.78 ± 0.04"}, {"measurement": "fraction unbound at 10 min, 1.19 MBq/mL", "setting": "in vitro [10]", "result": "0.064 ± 0.003"}, {"measurement": "fraction unbound at 10 min, 1.19 MBq/mL", "setting": "in vitro [11]", "result": "0.049 ± 0.005"}]}]}
